These results are taken from US5068064A, “N-substituted lauramides, their preparation and compositions in which they are present” (Sanofi, priority 1989, dated 1991).

Converted amounts (≈) assume the structure as drawn.

For orientation: MBC means the smallest concentration meeting the test's criterion for killing. Low values mean more potent killing, high ones less potent killing. The term MFC denotes the lowest tested concentration that kills the fungus rather than only halting it. Lower therefore signals greater fungicidal potency. The term solubility denotes how much of the substance goes into solution per volume.

Data set [1] deals with Pseudomonas aeruginosa CIP A22. Description: Percentage of bactericidal active principle, second method (5 min contact), P. aeruginosa. It counts as cell-based. Conditions: destruction of 99.99%. The source says: (§1) In the two methods, a bacterial inoculum is brought into contact with different dilutions of the product for a determined period of time.
(§2) When the contact period has ended, an aliquot of the mixture of bacterial suspension and product is taken and brought into contact with an agent for neutralizing the bacterial activity of the mixture, either in a solid medium or in a liquid medium. The bactericidal activity of the product, expressed either as a concentration or as a percentage of active principle, corresponds to an absence of bacterial growth.
(§3) The second method makes it possible to define a percentage of bactericidal or fungicidal active principle by means of a simplified and automated adaptation of Afnor standards NF T 72-150 and NF T 72-170. In this method, the bactericidal activity of the product is determined with and without interfering substances. It is based on assessing the destruction of 99.99% of the initial bacteria by the product in 5 minutes. The interfering substances are of the protein type and are chosen for the actual conditions of application of this type of product. The contact time between product and bacterial suspension is 5 minutes, the neutralization step is 10 minutes and subculture is effected in a liquid medium.
(§4) The chosen bacterial strains are:
4. Pseudomonas aeruginosa
(§5) The strains are maintained on Tryptic Soy Agar® (TSA) marketed by Difco.
(§6) The strains are harvested in a manner identical to the first method; these suspensions contain between 1.10^8 and 3.10^8 cells per milliliter. Appropriate dilutions make it possible to have a suspension containing 2 to 6.10^3 cells per milliliter.
(§7) The experiment is performed in microtiter plates; it comprises two steps. The first step, called the preliminary test, checks that the product is indeed neutralized. In the test proper, the different dilutions of the product are brought into contact with 2 to 6.10^3 cells per milliliter of the bacterial suspension in the second row of the microtiter plate. After a contact time of 5 minutes, an aliquot is transferred to the third row containing the neutralizer adapted to the product and to the strain. After a contact time of 10 minutes, aliquots are transferred to the last 5 rows containing Tryptic Soy Broth® (TSB) from Difco.
(§8) The interfering substances tested are a mixture of albumin and yeast extract. In the first row of the microplate, these proteins are brought into contact for 5 minutes with the different dilutions of the product. After this step, the same principle as above is applied: 5 minutes of contact with the germ, 10 minutes of contact with the neutralizer, transfer to TSB.

The test system of data set [2] is Enterococcus faecium CIP 5855. Description: Minimum bactericidal concentration, first method (30 min contact), E. faecium. It counts as cell-based. The following applies: CIP5855, 0.5 h, contact time 30 minutes.
Excerpt: as §1, §2
(§9) The first method makes it possible to define a minimum bactericidal concentration (MBC) or minimum fungicidal concentration (MFC), expressed in μg/ml. The contact time between product and bacterial suspension is 30 minutes. The neutralizer is included in agar.
(§10) The CIP bacterial strains chosen for the study, which are available from the Institut Pasteur, are:
as §5
(§11) After 24 hours of culture at 37° C., the microbial growth is harvested with the aid of glass beads and 10 ml of diluent containing 1 g of tryptone and 8.5 g of sodium chloride in 1000 ml of distilled water. The suspension formed is shaken and the percentage transmission of light at 620 nm is measured in a spectrophotometer:
(§12) The bacterial inoculum corresponds to a 1:20 dilution of this bacterial suspension.
(§13) Plates containing cupules receive different dilutions of the test product. These dilutions of the test product are brought into contact with the different bacterial suspensions using a multiple site inoculator. After a contact time of 30 minutes, aliquots are transferred with this inoculator to the surface of an agar medium (TSA) placed in Petri dishes containing an activity neutralizer, namely 20 g of lubrol W, 2.5 g of Tween 80, 2.5 g of sodium thiosulfate and 1% of egg yolk in 1000 ml of TSA (Difco). A control for the efficacy of the neutralizer is prepared for each test product by depositing an aliquot of the dilution of the test product on the surface of the culture medium. After drying, the corresponding inoculum is deposited in the same place. An inoculum control is prepared on agar medium with and without neutralizer. The results are read off after 48 hours of incubation at 37° C.
(§14) They indicate the minimum bactericidal concentrations (MBC) for strains 1, 2, 3 and 4 and the minimum fungicidal concentrations (MFC) for strain 5.

The subject of data set [3] is Staphylococcus aureus CIP 53154. The experiment in a line: Minimum bactericidal concentration, first method (30 min contact), S. aureus. The following applies: CIP53154, 0.5 h, contact time 30 minutes. It counts as cell-based.
Excerpt: as §1, §2, §9, §10
(§15) 1. Staphylococcus aureus
as §5, §11, §12, §13, §14

In data set [4] the test system is Candida albicans CIP 1180. Description: Minimum fungicidal concentration, first method (30 min contact), C. albicans. Conditions: CIP1180, 0.5 h, contact time 30 minutes. It counts as cell-based.
Excerpt: as §1, §2, §9, §13
The antifungal activity of the products according to the invention was also determined using the method described above. A representative strain of yeast was selected for the study: Candida albicans CIP 1180 (strain 5).
This is maintained on Sabouraud's Dextrose Agar marketed by Difco. The technique is identical to that described for studying the antibacterial activity. After 48 hours of culture at 37° C., the microbial growth is harvested with the aid of glass beads and 5 ml of diluent containing 1 g of tryptone and 8.5 g of sodium chloride in 1000 ml of distilled water; a further 5 ml of the diluent are then added. This suspension gives a percentage transmission of light at 620 nm of 2 to 3% in a spectrophotometer.
The inoculum corresponds to a 1:10 dilution of this microbial suspension. A 1:100 dilution of this suspension, observed between slide and cover glass through a No. 40 microscope objective, must show 10 cells per field, which corresponds to 1,000,000 yeasts per ml.
as §14

Data set [5] deals with Enterococcus faecium CIP 5855. The experiment in a line: Percentage of bactericidal active principle, second method (5 min contact), E. faecium. It counts as cell-based. The following applies: destruction of 99.99%.
Excerpt: as §1, §2, §3, §4, §5, §6, §7, §8

Data set [6] relates to Candida albicans CIP 1180. Description: Percentage of fungicidal active principle, second method (5 min contact), C. albicans. It counts as cell-based.
Excerpt: as §1, §2, §3, §7, §8
The antifungal activity of the products according to the invention was also determined with and without interfering substances using the method described above. The same strain was used as for the first technique, namely Candida albicans CIP 1180. It is harvested in an identical manner to that described in the first method.

The subject of data set [7] is Mycobacterium smegmatis CIP 7326. Description: Percentage of bactericidal active principle, second method (5 min contact), M. smegmatis. It is filed as cell-based. The following applies: with proteins as interfering substances, destruction of 99.99%.
Excerpt: as §1, §2, §3, §4
5. Mycobacterium smegmatis
as §5, §6, §7, §8

Data set [8] relates to S. aureus, E. faecium, E. coli, P. aeruginosa, C. albicans, M. smegmatis. The experiment in a line: Second method, bactericidal and fungicidal activity over all strains (Table III). It is filed as cell-based. Conditions: contact time 5 minutes.
Excerpt: as §1, §2
The second method makes it possible to define a percentage of bactericidal or fungicidal active principle by means of a simplified and automated adaptation of Afnor standards NF T 72-150 and NF T 72-170. In this method, the bactericidal activity of the product is determined with and without interfering substances. It is based on assessing the destruction of 99.99% of the initial bacteria by the product in 5 minutes. The interfering substances are of the protein type and are chosen for the actual conditions of application of this type of product. […]
The antifungal activity of the products according to the invention was also determined with and without interfering substances using the method described above. […]

Data set [9] deals with Escherichia coli CIP 54127. The experiment in a line: Percentage of bactericidal active principle, second method (5 min contact), E. coli. It counts as cell-based. Conditions: destruction of 99.99%.
Excerpt: as §1, §2, §3, §4
(§16) 3. Escherichia coli CIP 54127
as §5, §6, §7, §8

The nature of data set [10]: Product solubility.
The subject of data set [11] is Staphylococcus aureus CIP 53154. Description: Percentage of bactericidal active principle, second method (5 min contact), S. aureus. It counts as cell-based. The following applies: destruction of 99.99%.
Excerpt: as §1, §2, §3, §4, §15, §5, §6, §7, §8

The subject of data set [12] is Escherichia coli CIP 54127. The experiment in a line: Minimum bactericidal concentration, first method (30 min contact), E. coli. It is filed as cell-based. The following applies: CIP54127, 0.5 h, contact time 30 minutes.
Excerpt: as §1, §2, §9, §10, §16, §5, §11, §12, §13, §14

In data set [13] the test system is Pseudomonas aeruginosa CIP A22. The experiment in a line: Minimum bactericidal concentration, first method (30 min contact), P. aeruginosa. It counts as cell-based. The following applies: CIPA22, 0.5 h, contact time 30 minutes.
Excerpt: as §1, §2, §9, §10
4. Psuedomonas aeruginosa
as §5, §11, §12, §13, §14

Data set [14] relates to S. aureus, E. faecium, E. coli, P. aeruginosa, C. albicans. The experiment in a line: First method, bactericidal and fungicidal activity over all strains (Table II). It counts as cell-based. Conditions: contact time 30 minutes.
Excerpt: as §1, §2, §9
Plates containing cupules receive different dilutions of the test product. These dilutions of the test product are brought into contact with the different bacterial suspensions using a multiple site inoculator. […] The results are read off after 48 hours of incubation at 37° C.
The antifungal activity of the products according to the invention was also determined using the method described above. […]

[15] abbreviates: Simple: without interfering substances.
[16] abbreviates: with proteins as interfering substances.

`CCCCCCCCCCCC(=O)NCCN(C)C` [D1, reference compound]: the “Bactericidal activity, results in percentage of active principle, P. aeruginosa” value in [1] (setting [15]) is 0.05 percentage of active principle; in data set [1] (setting [16]), 0.5 percentage of active principle. The MBC in data set [2], in [3], in [12] and in data set [13] was 50 µg/mL (≈ 185 µM) in each case. This compound registered an MFC in [4] of 200 µg/mL (≈ 739 µM). In addition, the “Bactericidal activity, results in percentage of active principle, E. faecium” value was 0.01 percentage of active principle in [5] (setting [15]) and 0.1 percentage of active principle in data set [5] (setting [16]). The results for the “Fungicidal activity, results in percentage of active principle, C. albicans” value in [6] (setting [15]) and in data set [6] (setting [16]) were 0.1 percentage of active principle and 0.5 percentage of active principle, respectively. Moreover, the “Bactericidal activity, results in percentage of active principle, M. smegmatis” value in data set [7] is recorded as > 0.5 percentage of active principle. In data set [8], the “Ranking of activities among the products” value is on record as “the activities are the lowest”. For the same compound, the entries for the “Bactericidal activity, results in percentage of active principle, E. coli” value in [9] (setting [15]) and in data set [9] (setting [16]) were 0.05 percentage of active principle and 0.1 percentage of active principle, respectively. The compound also returned a solubility in data set [10] (water) of 18 mg/mL (≈ 66600 µM). Also, the “Bactericidal activity, results in percentage of active principle, S. aureus” value in [11] (setting [16]) is 0.5 percentage of active principle.
Take `CCCCCCCCCCCC(=O)NCCCN1CCC(Cc2ccccc2)CC1` [SR 45320 A]: the “Bactericidal activity, results in percentage of active principle, P. aeruginosa” value in data set [1] (setting [15]) is given as 0.005 percentage of active principle; in data set [1] (setting [16]) it was > 0.5 percentage of active principle. Further, the MBC in data set [2], in data set [3], in data set [12] and in data set [13] was 10 µg/mL (≈ 24.1 µM) throughout. In addition, in data set [14], the “Ranking of MBC and MFC among the products” value is “lowest MBC and MFC”. The same compound gave an MFC in data set [4] of 10 µg/mL (≈ 24.1 µM). Besides, the “Bactericidal activity, results in percentage of active principle, E. faecium” value is given as < 0.001 percentage of active principle in [5] (setting [15]) and 0.1 percentage of active principle in data set [5] (setting [16]). Besides, the “Fungicidal activity, results in percentage of active principle, C. albicans” value is on record as 0.005 percentage of active principle in data set [6] (setting [15]) and 0.05 percentage of active principle in [6] (setting [16]). In data set [7], the “Bactericidal activity, results in percentage of active principle, M. smegmatis” value is 0.05 percentage of active principle. The “Bactericidal activity, results in percentage of active principle, E. coli” value in data set [9] (setting [15]) is 0.01 percentage of active principle; in data set [9] (setting [16]), 0.05 percentage of active principle. For the same compound, the Product solubility in data set [10] (in TEG (tetraethylene glycol)) worked out at 1%. The “Bactericidal activity, results in percentage of active principle, S. aureus” value in [11] (Simple: without interfering substances, * activity limited to the zone indicated) is recorded as 0.005 percentage of active principle; in data set [11] (setting [16]), 0.05 percentage of active principle.
